Converted amounts (≈) assume the structure as drawn. Read-outs that look alike come from different tables or passages of the source.
Columns and labels:
cytochrome P450 2C19 = cytochrome P450 2C19 (Homo sapiens (Human), UniProt P33261); test: biochemical
hERG potassium channel = hERG potassium channel (Homo sapiens (Human), UniProt Q12809); test: in vitro
cytochrome P450 2C9 = cytochrome P450 2C9 (Homo sapiens (Human), UniProt P11712); test: biochemical
in vitro = in vitro ADME; conditions: human, pH 7.2, 37° C.; for Papp A→B at 10 μM: Caco-2, pH 7.2, Caco-2, apical-to-basal, read-out: PEAB; for Papp B→A at 10 μM: Caco-2, pH 7.2, Caco-2, basal-to-apical, read-out: PEBA
cytochrome P450 2C8 = cytochrome P450 2C8 (Homo sapiens (Human), UniProt P10632); test: biochemical
physchem = type: physicochemical; conditions: for solubility at 24 h: McIlvaine buffer pH 6.8 containing 2.5% DMSO, pH 6.8, aqueous buffer, kinetic from dmso stock, McIlvaine buffer pH 6.8, 2.5% DMSO
neutrophil elastase [1] = biological target: T1, neutrophil elastase (Homo sapiens (Human), UniProt P08246); test: biochemical
neutrophil elastase [2] = biological target: T1, neutrophil elastase; test: biochemical; type: biochemical
Method: Human Neutrophil Elastase Assay
All other materials were of the highest grade commercially available.
The following buffers were used: Compound buffer: 100 mM Tris, 500 mM NaCl, adjusted to pH 7.5; Assay buffer: 100 mM Tris, 500 mM NaCl, adjusted to pH 7.5, containing 0.01% BSA.
Assay conditions: Test compounds were prediluted in DMSO and subsequently in compound buffer (5% DMSO final). […] After inactivation of the enzyme, fluorescence intensities were measured at 380 nm excitation and 460 nm emission wavelengths.
Each plate contains wells with a high value control (DMSO+enzyme+substrate) and wells with a low value control (DMSO+inactivated enzyme+substrate). IC50 values were estimated using a sigmoidal concentration response curve with variable slope. Means of low values were taken as 0%, means of high values as 100%.

[3] = Metabolic stability with human liver microsomes; type: in vitro ADME; conditions: for half-life at 1 μM: human, pH 7.6, pooled human liver microsomes, read-out: t1/2 INVITRO
Caco-2 cells = test: in vitro; type: in vitro ADME; conditions: pH 7.2
[4] = pooled human liver microsomes, 1 μM test compound, 37° C.

T1 sequence (P08246 whole entry, looked up): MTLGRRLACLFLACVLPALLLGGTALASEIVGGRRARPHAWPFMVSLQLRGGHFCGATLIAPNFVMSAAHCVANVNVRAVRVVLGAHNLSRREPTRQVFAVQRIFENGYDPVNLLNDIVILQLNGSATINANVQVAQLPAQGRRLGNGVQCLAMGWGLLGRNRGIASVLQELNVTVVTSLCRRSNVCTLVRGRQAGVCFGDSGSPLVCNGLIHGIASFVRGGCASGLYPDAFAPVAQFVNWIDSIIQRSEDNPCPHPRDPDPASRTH
Chain of cytochrome P450 2C19 (P33261 whole entry, looked up): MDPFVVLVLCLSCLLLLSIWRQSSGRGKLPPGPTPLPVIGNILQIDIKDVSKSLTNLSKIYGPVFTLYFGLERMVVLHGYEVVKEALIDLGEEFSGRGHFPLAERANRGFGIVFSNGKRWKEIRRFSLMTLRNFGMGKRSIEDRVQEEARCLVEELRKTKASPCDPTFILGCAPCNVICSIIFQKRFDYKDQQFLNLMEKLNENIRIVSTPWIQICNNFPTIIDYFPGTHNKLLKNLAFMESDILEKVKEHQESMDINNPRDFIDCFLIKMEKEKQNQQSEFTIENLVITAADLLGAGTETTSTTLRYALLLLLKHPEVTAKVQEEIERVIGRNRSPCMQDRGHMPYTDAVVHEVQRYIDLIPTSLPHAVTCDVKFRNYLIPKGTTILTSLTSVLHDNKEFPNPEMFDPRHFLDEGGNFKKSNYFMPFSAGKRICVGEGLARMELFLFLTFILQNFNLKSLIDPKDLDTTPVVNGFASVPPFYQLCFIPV
Chain of cytochrome P450 2C9 (P11712 whole entry, looked up): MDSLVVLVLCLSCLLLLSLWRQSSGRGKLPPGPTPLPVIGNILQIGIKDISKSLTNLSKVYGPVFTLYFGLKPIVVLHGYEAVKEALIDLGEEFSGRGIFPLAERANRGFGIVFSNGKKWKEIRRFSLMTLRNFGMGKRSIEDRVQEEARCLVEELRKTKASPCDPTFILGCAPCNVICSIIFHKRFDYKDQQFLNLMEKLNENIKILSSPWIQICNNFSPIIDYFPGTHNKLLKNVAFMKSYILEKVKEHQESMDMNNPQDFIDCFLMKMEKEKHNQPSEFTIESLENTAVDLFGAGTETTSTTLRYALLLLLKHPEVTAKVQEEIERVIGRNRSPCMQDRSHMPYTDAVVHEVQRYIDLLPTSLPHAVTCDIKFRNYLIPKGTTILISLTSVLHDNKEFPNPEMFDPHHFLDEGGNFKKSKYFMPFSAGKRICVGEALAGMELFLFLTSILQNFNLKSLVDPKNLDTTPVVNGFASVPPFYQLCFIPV
Chain of cytochrome P450 2C8 (P10632 whole entry, looked up): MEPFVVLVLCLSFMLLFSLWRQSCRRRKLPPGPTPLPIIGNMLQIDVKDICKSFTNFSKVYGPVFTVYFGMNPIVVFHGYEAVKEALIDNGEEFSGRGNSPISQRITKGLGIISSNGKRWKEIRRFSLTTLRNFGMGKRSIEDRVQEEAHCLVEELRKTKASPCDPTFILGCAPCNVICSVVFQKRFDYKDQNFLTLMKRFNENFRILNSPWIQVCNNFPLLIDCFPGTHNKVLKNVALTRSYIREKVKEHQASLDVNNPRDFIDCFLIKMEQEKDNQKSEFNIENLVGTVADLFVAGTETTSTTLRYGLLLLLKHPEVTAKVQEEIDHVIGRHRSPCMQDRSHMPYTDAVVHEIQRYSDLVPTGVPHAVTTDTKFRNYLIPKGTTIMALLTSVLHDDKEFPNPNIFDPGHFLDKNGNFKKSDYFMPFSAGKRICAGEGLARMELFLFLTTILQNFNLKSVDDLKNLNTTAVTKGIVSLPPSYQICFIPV

Compound | Papp A→B at 10 μM (in vitro) [×10⁻⁶ cm/s] | Papp B→A at 10 μM (in vitro) [×10⁻⁶ cm/s] | solubility at 24 h (physchem) [µg/mL] | EC50 (neutrophil elastase [1]) [nM] | half-life at 1 μM [3, 4] [h] | IC50 (neutrophil elastase [2]; read-out: IC50) [nM] | other results
CN1C(=O)N(c2cccc(C(F)(F)F)c2)C2=C(C(=O)CC2)C1c1ccc(C#N)cc1CO (single isomer, unassigned) [Example A.1A, 3-Hydroxymethyl-4-[3-methyl-2,5-dioxo-1-(3-trifluoromethyl-phenyl)-2,3,4,5,6,7-hexahydro-1H-cyclopentapyrimidin-4-yl]-benzonitrile] | 53 | 98 | 58 (≈ 131 µM) | 2 | – | – | IC50 (cytochrome P450 2C19): > 50000 nM; inhibition at 10 µM (hERG potassium channel): 7%; IC50 (cytochrome P450 2C9): > 50000 nM; IC50 (cytochrome P450 2C8): > 50000 nM; IC50 (neutrophil elastase [2]; IC50): < 1 nM
CN1C(=O)N(c2cccc(C(F)(F)F)c2)C2=C(C(=O)CC2)C1c1ccc(C#N)cc1S(=O)(=O)CCCO (single isomer, unassigned) [Example B.1.3A] | 9.9 | 130 | 93 (≈ 174 µM) | – | 1.52 | – | –
CN1C(=O)N(c2cccc(C(F)(F)F)c2)C2=C(C(=O)CC2)[C@H]1c1ccc(C#N)cc1[S+](C)[O-] (single isomer, unassigned) [Example C.1B, 3-Methanesulfinyl-4-[3-methyl-2,5-dioxo-1-(3-trifluoromethyl-phenyl)-2,3,4,5,6,7-hexahydro-1H-cyclopentapyrimidin-4-yl]-benzonitrile] | – | 41 | – | 1 | – | < 1 | PEAB (Caco-2 cells): 3.7 ×10⁻⁶ cm/s; Aqueous solubility (physchem): 61 µg/mL; t1/2 INVITRO [3, 4]: 1.55 h
CC[S+]([O-])c1cc(C#N)ccc1C1C2=C(CCC2=O)N(c2cccc(C(F)(F)F)c2)C(=O)N1C (single isomer, unassigned) [Example C.5.1, 3-Ethanesulfinyl-4-[3-methyl-2,5-dioxo-1-(3-trifluoromethyl-phenyl)-2,3,4,5,6,7-hexahydro-1H-cyclopentapyrimidin-4-yl]-benzonitrile] | – | 57 | 86 (≈ 176 µM) | – | 1.83 | – | PEAB (Caco-2 cells): 7.1 ×10⁻⁶ cm/s
CC[S+]([O-])c1cc(C#N)ccc1C1C2=C(CCC2=O)N(c2cccc(C(F)(F)F)c2)C(=O)N1C (single isomer, unassigned) [Example C.5.2, 3-Ethanesulfinyl-4-[3-methyl-2,5-dioxo-1-(3-trifluoromethyl-phenyl)-2,3,4,5,6,7-hexahydro-1H-cyclopentapyrimidin-4-yl]-benzonitrile] | – | – | – | – | – | – | PEAB (Caco-2 cells): 16 ×10⁻⁶ cm/s; PEBA (Caco-2 cells): 82 ×10⁻⁶ cm/s; Aqueous solubility (physchem): 69 µg/mL; t1/2 INVITRO [3]: >2.17 h
CN1C(=O)N(c2ccnc(C(F)(F)F)c2)C2=C(C(=O)CC2)C1c1ccc(C#N)cc1S(C)(=O)=O (single isomer, unassigned) [Example D.1A, 3-Methanesulfonyl-4-[3-methyl-2,5-dioxo-1-(2-trifluoromethyl-pyridin-4-yl)-2,3,4,5,6,7-hexahydro-1H-cyclopentapyrimidin-4-yl]-benzonitrile] | 19 | 81 | – | – | > 2.17 | – | inhibition at 10 µM (hERG potassium channel): 8%
CCS(=O)(=O)c1cc(C#N)ccc1C1C2=C(CCC2=O)N(c2ccnc(C(F)(F)F)c2)C(=O)N1C (single isomer, unassigned) [Example D.3B, 3-Ethanesulfonyl-4-[3-methyl-2,5-dioxo-1-(2-trifluoromethyl-pyridin-4-yl)-2,3,4,5,6,7-hexahydro-1H-cyclopentapyrimidin-4-yl]-benzonitrile] | 21 | 85 | – | 1 | 2 | 1.4 | –
CCNC(=O)N1C(=O)N(c2ccnc(C(F)(F)F)c2)C2=C(C(=O)CC2)C1c1ccc(C#N)cc1S(=O)(=O)CC (single isomer, unassigned) [Example D.4.1A, 4-(4-cyano-2-ethanesulfonyl-phenyl)-2,5-dioxo-1-(2-trifluoromethyl-pyridin-4-yl)-1,2,4,5,6,7-hexahydro-cyclopentapyrimidine-3-carboxylic acid ethylamide] | 3.6 | 61 | 81 (≈ 144 µM) | < 1 | > 2.17 | – | IC50 (neutrophil elastase [2]; IC50): < 1 nM
CCS(=O)(=O)c1cc(C#N)ccc1C1NC(=O)N(c2cccc(C(F)F)c2)C2=C1C(=O)CC2 (single isomer, unassigned) [Example D.5A, 4-[1-(3-Difluoromethyl-phenyl)-2,5-dioxo-2,3,4,5,6,7-hexahydro-1H-cyclopentapyrimidin-4-yl]-3-ethanesulfonyl-benzonitrile] | 7.5 | 78 | 67 (≈ 142 µM) | 1 | > 2.17 | – | IC50 (neutrophil elastase [2]; IC50): 2.2 nM
CNC(=O)N1C(=O)N(c2cc(C(F)(F)F)ccn2)C2=C(C(=O)CC2)C1c1ccc(C#N)cc1S(C)(=O)=O (centres unmarked) [D.4.4] | 3.1 | 60 | – | 2 | > 2.17 | < 1 | –
CCNC(=O)N1C(=O)N(c2cc(C(F)(F)F)ccn2)C2=C(C(=O)CC2)C1c1ccc(C#N)cc1S(C)(=O)=O (centres unmarked) [D.4.5] | 7.3 | 67 | 78 (≈ 142 µM) | 1 | > 2.17 | < 1 | –
CN1C(=O)N(c2cccc(C(F)(F)F)c2)C2=C(C(=O)CC2)C1c1ccc(C#N)cc1C(C)(C)O (centres unmarked) [Example A.2, 3-(1-Hydroxy-1-methyl-ethyl)-4-[3-methyl-2,5-dioxo-1-(3-trifluoromethyl-phenyl)-2,3,4,5,6,7-hexahydro-1H-cyclopentapyrimidin-4-yl]-benzonitrile] | 92 | 80 | – | 1 | > 2.17 | < 1 | –
CC(O)c1cc(C#N)ccc1C1C2=C(CCC2=O)N(c2cccc(C(F)(F)F)c2)C(=O)N1C (centres unmarked) [Example A.3, 3-(1-Hydroxy-ethyl)-4-[3-methyl-2,5-dioxo-1-(3-trifluoromethyl-phenyl)-2,3,4,5,6,7-hexahydro-1H-cyclopentapyrimidin-4-yl]-benzonitrile] | 67 | 87 | 65 (≈ 143 µM) | – | > 2.17 | – | –
CN1C(=O)N(c2cccc(C(F)(F)F)c2)C2=C(C(=O)CC2)[C@H]1c1ccc(C#N)cc1S(=O)(=O)CCO [Example B.1.2B] | 12 | 120 | 73 (≈ 141 µM) | 1 | > 2.17 | – | IC50 (cytochrome P450 2C19): > 50000 nM; inhibition at 10 µM (hERG potassium channel): 12%; IC50 (cytochrome P450 2C9): > 50000 nM; IC50 (cytochrome P450 2C8): > 50000 nM; IC50 (neutrophil elastase [2]; IC50): < 1 nM
CCS(=O)(=O)c1cc(C#N)ccc1C1C2=C(CCC2=O)N(c2cccc(C(F)F)c2)C(=O)N1C(=O)NC (centres unmarked) [Example D.7, 4-(4-Cyano-2-ethanesulfonyl-phenyl)-1-(3-difluoromethyl-phenyl)-2,5-dioxo-1,2,4,5,6,7-hexahydro-cyclopentapyrimidine-3-carboxylic acid methylamide] | – | – | – | – | – | < 1 | –
CS(=O)(=O)c1cc(C#N)ccc1C1C2=C(CCC2=O)N(c2cccc(C(F)(F)F)c2)C(=O)N1CCO (centres unmarked) [Example E.1, 4-[3-(2-Hydroxy-ethyl)-2,5-dioxo-1-(3-trifluoromethyl-phenyl)-2,3,4,5,6,7-hexahydro-1H-cyclopentapyrimidin-4-yl]-3-methanesulfonyl-benzonitrile] | – | – | – | – | – | – | IC50 (neutrophil elastase [2]; Neutrophil Elastase assay, substrate MeOSuc-Ala-Ala-Pro-Val-AMC, read-out: IC50): < 1 nM

— US9475779B2, “Substituted bicyclic dihydropyrimidinones and their use as inhibitors of neutrophil elastase activity” (priority 2014, dated 2016)
